Measurements: ChEMBL document CHEMBL1687864, “Carijodienone from the octocoral Carijoa multiflora. A spiropregnane-based steroid” (2011)
Converted amounts (≈) assume the structure as drawn.

Experiments:
Format in all cases: functional
Bacillus cereus = assay: Antibacterial activity against Bacillus cereus by broth macrodilution method
Klebsiella pneumoniae = assay: Antibacterial activity against Klebsiella pneumoniae by broth macrodilution method
Staphylococcus aureus = assay: Antibacterial activity against Staphylococcus aureus by broth macrodilution method
Salmonella = assay: Antibacterial activity against Salmonella by broth macrodilution method
Escherichia coli = assay: Antibacterial activity against Escherichia coli by broth macrodilution method
Enterococcus faecalis = assay: Antibacterial activity against Enterococcus faecalis by broth macrodilution method
Proteus mirabilis = assay: Antibacterial activity against Proteus mirabilis by broth macrodilution method

MIC (Bacillus cereus) [µg/mL]	MIC (Klebsiella pneumoniae) [µg/mL]	MIC (Staphylococcus aureus) [µg/mL]	MIC (Salmonella) [µg/mL]	MIC (Escherichia coli) [µg/mL]	MIC (Enterococcus faecalis) [µg/mL]	MIC (Proteus mirabilis) [µg/mL]	SMILES
6 (≈ 20.2 µM)	5 (≈ 16.9 µM)						C=C[C@H]1CC[C@H]2[C@@H]3CC[C@@]4(C=CC(=O)C=C4C)[C@H]3CC[C@]12C [CARIJODIENONE]
> 40	> 40	> 40	> 40	> 40	> 40	> 40	C=C[C@H]1CC[C@H]2[C@@H]3CCC4=CC(=O)C=C[C@]4(C)[C@H]3CC[C@]12C
